From PubChem BioAssay (NCI)
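Assay format: 96-well plates, 48-hour exposure. Here, GI50 denotes the concentration required for 50% inhibition of growth. TGI marks complete inhibition of growth.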

Each molecule was assayed on UACC-257 melanoma (assay: DTP human tumour cell line panel, 48 h).

Structure (SMILES) | GI50 [µM] | TGI [µM]
Clc1nc(Cl)c2ncn(Cc3ccccc3Cn3cnc4c(Cl)nc(Cl)nc43)c2n1 | 9.62 | 25.4
CS(=O)(=O)CS(=O)(=O)OCCCl | – | 808
CC(C)(C)c1cc(C(=O)/C=C/c2ccc(C(=O)O)cc2)cc(C(C)(C)C)c1 | – | 21.9
COc1ccc(-c2ccc(NNC(=O)c3ccc(F)cc3)nn2)cc1OC | > 100 | > 100
Cc1noc2c1-c1ccccc1C(c1ccc(Cl)cc1)=N[C@H]2CC(N)=O | 7.4 | > 100
O=C(N/N=C/c1ccc(O)cc1O)c1cccnc1 | 3.33 | 22.5
O=C(NNc1cnccn1)c1nc2cc(F)ccc2n2cccc12 | 0.515 | > 100
NCCCOc1cc(Cl)ccc1NC(=O)c1cc2ccccc2cc1OCCCN | 2.02 | 3.69
C=C1C(=O)OC2C1CC(OC(C)=O)/C(C)=C/CCC1(C)OC21 (configuration not stated) | – | > 100
COc1cc(/C=C/C(=O)C(C(=O)/C=C/c2ccc(OC(=O)CCNC34CC5CC(CC(C5)C3)C4)c(OC)c2)C(=O)CCNC23CC4CC(CC(C4)C2)C3)ccc1OC(=O)CCNC12CC3CC(CC(C3)C1)C2 (configuration not stated) | 3.45 | 14
CCOC(=O)C1=C(N)Oc2c(sc3c(C)cccc23)C1c1ccc(F)cc1 (configuration not stated) | 12.6 | 27.7
NC(N)=N/N=C(\N=Nc1ccccc1)c1ccc(Cl)cc1 | 2.42 | 6.37

What follows are molecules tested on MALME-3M melanoma (assay: DTP human tumour cell line panel, 48 h).

Structure (SMILES) | GI50 [µM] | TGI [µM]
O=C(CCN1CCOCC1)Nc1cccc(-n2cc(-c3ccncc3)c(-c3ccc(Cl)c(O)c3)n2)c1 | 1.65 | 10.8
C=C(C)[C@@H]1CC[C@]2(C)[C@H](CC[C@@H]3[C@@H]([C@@](C)(O)CCC=C(C)C)CC[C@]32C)[C@@]1(C)CCC(=O)O | 14.4 | 28.2
c1ccc(NCCSc2nc3ccccc3s2)cc1 | – | > 100
Oc1ccc(Oc2cnc3ccccc3n2)cc1 | > 100 | > 100
Cc1ccc2occ/c(=N\Nc3ccccc3)c2c1 | – | > 100
CC(=O)NC1CONC1=O (configuration not stated) | – | > 100
Oc1ccc(N=Nc2nccs2)c(O)c1 | 14.7 | 34.3
COc1cc(/C=C/C(=O)Oc2ccccc2)ccc1C(=O)O/C=C/c1ccccc1 | – | > 100
CC(Cl)CN1c2ccccc2Sc2ccc(Cl)cc21 (configuration not stated) | – | > 10
O=C1c2ccccc2C(=O)c2c(NCCN=Cc3ccccc3O)cccc21 | 1.55 | 3.84
Oc1ccc(/C=C/c2cc(O)cc3c2C(c2cc(O)cc(O)c2)C(c2ccc(O)c(O)c2)O3)cc1 (configuration not stated) | – | 80.6
CC1(C)N=C(N)N=C(N)N1c1cccc(OCCOc2cccc([N+](=O)[O-])c2)c1 | 7.54 | > 100
CCc1nc(Cl)c(Cl)c(Cl)n1 | – | > 100
O=[N+]([O-])c1ccc(Sc2c3ccccc3nc3ccccc23)cn1 | – | 19.9
CNC(C)[C@H]1CCC2C3CC=C4C(=O)[C@@H](NC(=O)C=C(C)C)CC[C@]4(C)C3CC[C@@]21C (some centres not stated) | 1.64 | 3.47
Clc1nc(Cl)c2ncn(Cc3ccccc3Cn3cnc4c(Cl)nc(Cl)nc43)c2n1 | 0.211 | 6.18
CS(=O)(=O)CS(=O)(=O)OCCCl | – | 1270
CC(C)(C)c1cc(C(=O)/C=C/c2ccc(C(=O)O)cc2)cc(C(C)(C)C)c1 | – | 7.99
COc1ccc(-c2ccc(NNC(=O)c3ccc(F)cc3)nn2)cc1OC | > 100 | > 100
Cc1noc2c1-c1ccccc1C(c1ccc(Cl)cc1)=N[C@H]2CC(N)=O | 5.17 | > 100
O=C(N/N=C/c1ccc(O)cc1O)c1cccnc1 | 5.16 | 39.2
O=C(NNc1cnccn1)c1nc2cc(F)ccc2n2cccc12 | 1.06 | > 100
NCCCOc1cc(Cl)ccc1NC(=O)c1cc2ccccc2cc1OCCCN | 1.65 | 3.59
C=C1C(=O)OC2C1CC(OC(C)=O)/C(C)=C/CCC1(C)OC21 (configuration not stated) | – | > 100
COc1cc(/C=C/C(=O)C(C(=O)/C=C/c2ccc(OC(=O)CCNC34CC5CC(CC(C5)C3)C4)c(OC)c2)C(=O)CCNC23CC4CC(CC(C4)C2)C3)ccc1OC(=O)CCNC12CC3CC(CC(C3)C1)C2 (configuration not stated) | 2.44 | 9.92
CCOC(=O)C1=C(N)Oc2c(sc3c(C)cccc23)C1c1ccc(F)cc1 (configuration not stated) | 0.588 | 20.8
NC(N)=N/N=C(\N=Nc1ccccc1)c1ccc(Cl)cc1 | 4.68 | 17.2

The molecules below were run on SK-OV-3 ovarian (assay: DTP human tumour cell line panel, 48 h).

Structure (SMILES) | GI50 [µM] | TGI [µM]
O=C(CCN1CCOCC1)Nc1cccc(-n2cc(-c3ccncc3)c(-c3ccc(Cl)c(O)c3)n2)c1 | 3.51 | 14.4
C=C(C)[C@@H]1CC[C@]2(C)[C@H](CC[C@@H]3[C@@H]([C@@](C)(O)CCC=C(C)C)CC[C@]32C)[C@@]1(C)CCC(=O)O | 32.9 | > 100
c1ccc(NCCSc2nc3ccccc3s2)cc1 | – | > 100
Oc1ccc(Oc2cnc3ccccc3n2)cc1 | > 100 | > 100
Cc1ccc2occ/c(=N\Nc3ccccc3)c2c1 | – | > 100
CC(=O)NC1CONC1=O (configuration not stated) | – | > 100
Oc1ccc(N=Nc2nccs2)c(O)c1 | 6.97 | 62.6
COc1cc(/C=C/C(=O)Oc2ccccc2)ccc1C(=O)O/C=C/c1ccccc1 | – | > 100
CC(Cl)CN1c2ccccc2Sc2ccc(Cl)cc21 (configuration not stated) | – | > 10
O=C1c2ccccc2C(=O)c2c(NCCN=Cc3ccccc3O)cccc21 | 3.54 | > 48.2
Oc1ccc(/C=C/c2cc(O)cc3c2C(c2cc(O)cc(O)c2)C(c2ccc(O)c(O)c2)O3)cc1 (configuration not stated) | – | > 100
CC1(C)N=C(N)N=C(N)N1c1cccc(OCCOc2cccc([N+](=O)[O-])c2)c1 | > 56.4 | > 100
CCc1nc(Cl)c(Cl)c(Cl)n1 | – | > 100
O=[N+]([O-])c1ccc(Sc2c3ccccc3nc3ccccc23)cn1 | – | > 93
CNC(C)[C@H]1CCC2C3CC=C4C(=O)[C@@H](NC(=O)C=C(C)C)CC[C@]4(C)C3CC[C@@]21C (some centres not stated) | 2.75 | 9.5
Clc1nc(Cl)c2ncn(Cc3ccccc3Cn3cnc4c(Cl)nc(Cl)nc43)c2n1 | 15.3 | 33.7
CS(=O)(=O)CS(=O)(=O)OCCCl | – | 423
CC(C)(C)c1cc(C(=O)/C=C/c2ccc(C(=O)O)cc2)cc(C(C)(C)C)c1 | – | 12.5
COc1ccc(-c2ccc(NNC(=O)c3ccc(F)cc3)nn2)cc1OC | > 100 | > 100
Cc1noc2c1-c1ccccc1C(c1ccc(Cl)cc1)=N[C@H]2CC(N)=O | 1.54 | > 65.7
O=C(N/N=C/c1ccc(O)cc1O)c1cccnc1 | 11.4 | > 100
O=C(NNc1cnccn1)c1nc2cc(F)ccc2n2cccc12 | 0.522 | > 100
NCCCOc1cc(Cl)ccc1NC(=O)c1cc2ccccc2cc1OCCCN | 1.4 | 2.72
C=C1C(=O)OC2C1CC(OC(C)=O)/C(C)=C/CCC1(C)OC21 (configuration not stated) | – | > 100
COc1cc(/C=C/C(=O)C(C(=O)/C=C/c2ccc(OC(=O)CCNC34CC5CC(CC(C5)C3)C4)c(OC)c2)C(=O)CCNC23CC4CC(CC(C4)C2)C3)ccc1OC(=O)CCNC12CC3CC(CC(C3)C1)C2 (configuration not stated) | 5.44 | 36.3
CCOC(=O)C1=C(N)Oc2c(sc3c(C)cccc23)C1c1ccc(F)cc1 (configuration not stated) | 11.5 | 32.3
NC(N)=N/N=C(\N=Nc1ccccc1)c1ccc(Cl)cc1 | 3.44 | 9.63
